Data published in the NIST ThermoML archive (doi:10.1021/je800110r).

Conditions: Liquid, Vibrating tube method

CCCCCCCCCC [decane]
Conditions	mass density [kg/m3]
293.15 K, 34214 kPa	753.1
293.15 K, 34239 kPa	753.1
293.15 K, 34259 kPa	753.1
293.15 K, 34285 kPa	753.1
293.15 K, 34303 kPa	753.1
293.16 K, 19215 kPa	743.7
293.16 K, 19235 kPa	743.6
293.16 K, 19274 kPa	743.8
293.16 K, 19292 kPa	743.6
293.16 K, 19437 kPa	743.9
293.16 K, 33877 kPa	753
303.14 K, 364 kPa	722.4
303.14 K, 380 kPa	722.3
303.14 K, 402 kPa	722.5
303.14 K, 424 kPa	722.6
303.14 K, 441 kPa	722.6
303.14 K, 462 kPa	722.5
303.14 K, 488 kPa	722.6
303.14 K, 520 kPa	722.6
303.14 K, 547 kPa	722.7
303.14 K, 571 kPa	722.7
303.14 K, 602 kPa	722.8
303.14 K, 632 kPa	722.7
303.14 K, 677 kPa	722.6
303.14 K, 720 kPa	722.8
303.14 K, 760 kPa	722.8
303.14 K, 810 kPa	722.9
303.14 K, 862 kPa	723
303.14 K, 904 kPa	723
303.14 K, 946 kPa	723
303.14 K, 997 kPa	723
303.14 K, 1037 kPa	723
303.14 K, 1220 kPa	723.2
303.14 K, 1295 kPa	723.2
303.14 K, 1434 kPa	723.4
303.14 K, 1467 kPa	723.4
303.14 K, 1497 kPa	723.4
303.14 K, 1538 kPa	723.5
303.14 K, 1586 kPa	723.5
303.14 K, 1619 kPa	723.4
303.14 K, 1670 kPa	723.5
303.14 K, 1705 kPa	723.5
303.14 K, 1760 kPa	723.6
303.14 K, 1816 kPa	723.7
303.14 K, 1856 kPa	723.7
303.14 K, 1904 kPa	723.8
303.14 K, 1955 kPa	723.9
303.14 K, 1986 kPa	724
303.14 K, 2021 kPa	723.9
303.14 K, 2067 kPa	723.9
303.14 K, 2099 kPa	723.9
303.14 K, 2132 kPa	723.9
303.14 K, 2177 kPa	724
303.14 K, 2229 kPa	724
303.14 K, 2270 kPa	723.9
303.14 K, 2320 kPa	724.1
303.14 K, 2376 kPa	724.2
303.14 K, 2415 kPa	724.1
303.14 K, 2455 kPa	724.1
303.14 K, 2518 kPa	724.3
303.14 K, 2560 kPa	724.3
303.14 K, 2611 kPa	724.3
303.14 K, 2680 kPa	724.4
303.14 K, 2736 kPa	724.4
303.14 K, 2782 kPa	724.5
303.14 K, 2818 kPa	724.6
303.14 K, 2834 kPa	724.6
303.14 K, 3457 kPa	725
303.14 K, 3518 kPa	725.1
303.15 K, 1065 kPa	723
303.15 K, 1099 kPa	723.2
303.15 K, 1144 kPa	723.2
303.15 K, 1175 kPa	723.2
303.15 K, 1261 kPa	723.3
303.15 K, 1325 kPa	723.2
303.15 K, 1363 kPa	723.2
303.15 K, 1385 kPa	723.3
303.15 K, 2849 kPa	724.6
303.15 K, 2899 kPa	724.6
303.15 K, 2942 kPa	724.7
303.15 K, 2968 kPa	724.7
303.15 K, 3005 kPa	724.8
303.15 K, 3039 kPa	724.6
303.15 K, 3070 kPa	724.7
303.15 K, 3105 kPa	724.8
303.15 K, 3140 kPa	724.8
303.15 K, 3167 kPa	724.9
303.15 K, 3207 kPa	724.8
303.15 K, 3250 kPa	724.9
303.15 K, 3283 kPa	725
303.15 K, 3333 kPa	724.9
303.15 K, 3363 kPa	725
303.15 K, 3400 kPa	725
303.15 K, 3487 kPa	725.1
303.15 K, 3503 kPa	724.9
303.15 K, 3530 kPa	725.1
303.15 K, 3542 kPa	725
303.15 K, 3556 kPa	725.2
303.15 K, 3568 kPa	725.1
303.15 K, 3587 kPa	725.2
303.15 K, 3606 kPa	725.2
303.15 K, 3618 kPa	725.1
303.15 K, 3637 kPa	725.3
303.15 K, 3655 kPa	725.2
303.15 K, 3668 kPa	725.4
303.15 K, 3688 kPa	725.3
303.15 K, 3707 kPa	725.2
303.15 K, 3720 kPa	725.3
303.15 K, 3735 kPa	725.3
303.15 K, 3753 kPa	725.3
303.15 K, 3770 kPa	725.3
303.15 K, 3790 kPa	725.3
303.15 K, 3808 kPa	725.3
303.15 K, 3820 kPa	725.3
303.15 K, 3840 kPa	725.4
303.15 K, 3855 kPa	725.4
303.15 K, 3871 kPa	725.3
303.15 K, 3885 kPa	725.3
303.15 K, 3902 kPa	725.5
303.15 K, 3916 kPa	725.5
303.15 K, 3938 kPa	725.5
303.15 K, 3958 kPa	725.4
303.15 K, 3974 kPa	725.4
303.15 K, 3988 kPa	725.4
303.15 K, 4013 kPa	725.5
303.15 K, 4029 kPa	725.5
303.15 K, 4042 kPa	725.6
303.15 K, 4059 kPa	725.5
303.15 K, 4074 kPa	725.5
303.15 K, 4089 kPa	725.6
303.15 K, 4104 kPa	725.6
303.15 K, 4122 kPa	725.6
303.15 K, 4137 kPa	725.5
303.15 K, 4153 kPa	725.7
303.15 K, 4172 kPa	725.7
303.15 K, 4188 kPa	725.7
303.15 K, 24341 kPa	740.5
303.15 K, 24369 kPa	740.3
303.15 K, 24389 kPa	740.3
303.15 K, 24417 kPa	740.4
303.15 K, 24444 kPa	740.4
303.15 K, 24484 kPa	740.5
303.15 K, 24509 kPa	740.4
303.15 K, 24577 kPa	740.5
303.15 K, 24654 kPa	740.6
303.15 K, 24804 kPa	740.6
303.15 K, 24833 kPa	740.7
303.15 K, 24870 kPa	740.7
303.15 K, 24908 kPa	740.7
303.15 K, 24929 kPa	740.7
303.15 K, 24962 kPa	740.7
303.15 K, 24995 kPa	740.8
303.15 K, 25025 kPa	740.7
303.15 K, 25050 kPa	740.7
303.15 K, 25648 kPa	741.1
303.15 K, 25678 kPa	741.3
303.15 K, 25713 kPa	741.2
303.15 K, 25744 kPa	741.3
303.15 K, 25771 kPa	741.3
303.15 K, 25839 kPa	741.3
303.15 K, 25875 kPa	741.2
303.15 K, 25902 kPa	741.4
303.15 K, 25935 kPa	741.4
303.15 K, 25959 kPa	741.5
303.15 K, 26009 kPa	741.4
303.15 K, 26041 kPa	741.5
303.15 K, 26073 kPa	741.5
303.15 K, 26100 kPa	741.5
303.15 K, 26137 kPa	741.5
303.15 K, 26164 kPa	741.5
303.15 K, 26206 kPa	741.5
303.15 K, 26242 kPa	741.5
303.15 K, 26270 kPa	741.6
303.15 K, 26309 kPa	741.6
303.15 K, 26334 kPa	741.6
303.15 K, 26357 kPa	741.7
303.15 K, 26400 kPa	741.7
303.15 K, 26433 kPa	741.8
303.15 K, 26465 kPa	741.7
303.15 K, 26494 kPa	741.7
303.15 K, 26532 kPa	741.8
303.15 K, 26574 kPa	741.8
303.15 K, 26607 kPa	741.9
303.15 K, 26640 kPa	741.8
303.15 K, 26684 kPa	741.9
303.15 K, 26718 kPa	741.8
303.15 K, 26752 kPa	741.9
303.15 K, 26781 kPa	741.9
303.15 K, 26820 kPa	741.9
303.15 K, 26844 kPa	741.9
303.15 K, 26884 kPa	741.9
303.15 K, 26923 kPa	742
303.15 K, 26947 kPa	742
303.15 K, 26982 kPa	742.1
303.15 K, 27007 kPa	742
303.15 K, 27037 kPa	742.2
303.15 K, 27071 kPa	742.1
303.15 K, 27116 kPa	742.2
303.15 K, 27156 kPa	742.2
303.15 K, 27186 kPa	742.1
303.15 K, 27226 kPa	742.2
303.15 K, 27262 kPa	742.2
303.15 K, 27298 kPa	742.3
303.15 K, 27333 kPa	742.3
303.15 K, 27375 kPa	742.4
303.15 K, 27400 kPa	742.4
303.15 K, 27431 kPa	742.3
303.15 K, 27462 kPa	742.4
303.15 K, 27503 kPa	742.3
303.15 K, 27535 kPa	742.4
303.15 K, 27585 kPa	742.4
303.15 K, 27622 kPa	742.4
303.15 K, 27666 kPa	742.4
303.15 K, 27697 kPa	742.5
303.15 K, 27724 kPa	742.6
303.15 K, 27748 kPa	742.5
303.15 K, 27771 kPa	742.6
303.15 K, 27803 kPa	742.5
303.15 K, 27827 kPa	742.7
303.15 K, 27859 kPa	742.6
303.15 K, 27890 kPa	742.6
303.15 K, 27923 kPa	742.8
303.15 K, 27952 kPa	742.6
303.15 K, 27975 kPa	742.7
303.15 K, 27999 kPa	742.8
303.15 K, 28032 kPa	742.7
303.15 K, 28057 kPa	742.8
303.15 K, 28085 kPa	742.7
303.15 K, 28118 kPa	742.9
303.15 K, 28151 kPa	742.8
303.15 K, 28180 kPa	742.9
303.15 K, 28205 kPa	742.8
303.15 K, 28234 kPa	742.9
303.15 K, 28258 kPa	742.9
303.15 K, 28289 kPa	742.9
303.15 K, 28314 kPa	742.9
303.15 K, 28343 kPa	743
303.15 K, 28369 kPa	743
303.15 K, 28399 kPa	743.1
303.15 K, 28443 kPa	743
303.15 K, 28470 kPa	743.1
303.15 K, 28511 kPa	743.2
303.15 K, 28542 kPa	743.1
303.15 K, 28562 kPa	743.1
303.15 K, 28584 kPa	743.2
303.15 K, 28605 kPa	743.1
303.15 K, 28622 kPa	743.2
303.15 K, 28643 kPa	743.1
303.15 K, 28666 kPa	743.1
303.15 K, 28685 kPa	743.3
303.15 K, 28705 kPa	743.2
303.15 K, 28725 kPa	743.2
303.15 K, 28754 kPa	743.3
303.15 K, 28771 kPa	743.3
303.15 K, 28791 kPa	743.3
303.15 K, 28809 kPa	743.2
303.15 K, 28826 kPa	743.2
303.15 K, 28844 kPa	743.4
303.15 K, 28865 kPa	743.2
303.15 K, 28885 kPa	743.3
303.15 K, 28902 kPa	743.2
303.15 K, 28928 kPa	743.4
303.15 K, 28945 kPa	743.3
303.15 K, 28966 kPa	743.4
303.15 K, 28986 kPa	743.4
303.15 K, 29000 kPa	743.5
303.15 K, 29018 kPa	743.4
303.15 K, 29042 kPa	743.4
303.15 K, 29062 kPa	743.4
303.15 K, 29083 kPa	743.4
303.15 K, 29107 kPa	743.4
303.15 K, 29131 kPa	743.5
303.15 K, 29154 kPa	743.4
